Assay results taken from US20100173888A1 (Pfizer Inc, priority 2008, published 2010).

These compounds were tested against human recombinant H-PGDS (Homo sapiens, UniProt O60760) (assay: Slightly modified fluorescence intensity h-PGDS TBA enzyme assay (1:40,000 enzyme, 40 second reaction, 1/2 log dilutions, top concentration typically 10 μM)). Conditions: slightly modified assay: 1:40,000 human recombinant H-PGDS.
Assay type: biochemical
In short: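 Enzyme pre-incubated 10 min at room temperature with inhibitor in 100 mM Trizma pH 8.0, 100 μM MgCl2, 0.1 mg/ml rabbit IgG, 2.5 mM glutathione, 0.5% DMSO; reaction started with 5.0 μM PGH2 and stopped with FeCl2/citric acid. Remaining PGH2 quantified as MDA–TBA fluorescence (ex 530/em 560 nm); IC50 from 4-parameter fit, 11 concentrations in duplicate.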

Sequence of human recombinant H-PGDS (O60760 whole entry): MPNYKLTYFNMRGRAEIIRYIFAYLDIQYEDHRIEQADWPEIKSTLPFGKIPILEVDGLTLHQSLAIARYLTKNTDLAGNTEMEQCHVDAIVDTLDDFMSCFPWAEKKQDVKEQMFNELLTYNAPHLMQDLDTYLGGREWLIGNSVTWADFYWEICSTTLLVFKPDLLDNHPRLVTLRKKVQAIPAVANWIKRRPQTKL

| IC50 | Compound |
| --- | --- |
| 4.07 nM | CCn1cnc2c1CCC(NC(=O)c1ccc(-c3cccc(F)c3)nc1)C2 (stereo not shown) [Example 126, N-(1-Ethyl-4,5,6,7-tetrahydro-1H-benzoimidazol-5-yl)-6-(3-fluoro-phenyl)-nicotinamide] |
| 5.03 nM | O=C(NC1CCc2ncccc2C1)c1ccc(-c2cccc(F)c2)nc1 (stereo not shown) [Example 127, 6-(3-Fluorophenyl)-N-(5,6,7,8-tetrahydroquinolin-6-yl)nicotinamide] |
| 179 nM | O=C(NC1CCCc2cccnc21)c1ccc(-c2cccc(F)c2)nc1 (stereo not shown) [Example 128, 6-(3-Fluorophenyl)-N-(5,6,7,8-tetrahydroquinolin-8-yl)nicotinamide] |
| 14.7 nM | N-{cis-3-[(3-aminocyclohexyl)carbamoyl]cyclohexyl}-6-(3-fluorophenyl)nicotinamide N-{trans-3-[(3-aminocyclohexyl)carbamoyl]cyclohexyl}-6-(3-fluorophenyl)nicotinamide [Example 64D] |
